The record followed here is PubChem BioAssay AID1794826.

As a reminder, the pEC50 is −log10 of the EC50, conventionally taken in molar units.

This experiment has as its target Sodium/myo-inositol cotransporter 2 (Homo sapiens) (UniProt Q8WWX8). Kind of experiment: sodium/myo-inositol cotransporter SLC5A11 activation – cell-based, membrane potential dye, HEK-293, SLC5A11 overexpression, dose response (AID 1794826). The settings on record: HEK-293 SLC5A11 OE, FLIPR membrane potential dye.

pEC50: −log10 of the molar value.

Sodium/myo-inositol cotransporter 2 (Homo sapiens), sequence (Q8WWX8 whole entry, looked up): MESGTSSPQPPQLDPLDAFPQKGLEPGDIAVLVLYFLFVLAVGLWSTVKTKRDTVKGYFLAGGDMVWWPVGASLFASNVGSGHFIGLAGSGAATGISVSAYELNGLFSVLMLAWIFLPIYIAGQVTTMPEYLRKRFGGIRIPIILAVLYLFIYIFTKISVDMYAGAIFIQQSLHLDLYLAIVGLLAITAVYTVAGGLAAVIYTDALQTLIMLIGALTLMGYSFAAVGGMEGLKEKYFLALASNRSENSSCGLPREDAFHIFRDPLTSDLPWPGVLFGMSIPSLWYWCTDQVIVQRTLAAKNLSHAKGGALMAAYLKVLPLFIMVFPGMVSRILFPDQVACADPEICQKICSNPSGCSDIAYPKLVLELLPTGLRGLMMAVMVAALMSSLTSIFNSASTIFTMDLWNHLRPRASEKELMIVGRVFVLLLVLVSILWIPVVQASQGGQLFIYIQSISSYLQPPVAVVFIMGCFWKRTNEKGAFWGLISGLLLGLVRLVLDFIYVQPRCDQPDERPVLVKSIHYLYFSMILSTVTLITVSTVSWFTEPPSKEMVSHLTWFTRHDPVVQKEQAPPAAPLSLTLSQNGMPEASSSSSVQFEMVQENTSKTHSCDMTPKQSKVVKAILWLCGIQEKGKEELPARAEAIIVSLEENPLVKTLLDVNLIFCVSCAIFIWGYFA

In the case of `OC1C(O)C(O)C(O)C(O)C1O` (stereo unspecified), the pEC50 was 3.98.
